The source of these data is patent US20240183860A1, “Chimeric ABC Transporters and Screening Methods” (Genentech, Inc., priority 2021, published 2024).

Bridge positions count the residues as written; N and C are the ends. Square brackets hold non-standard residues; d marks the D form. Peptide text beside a SMILES is read from it. Bip = N[C@@H](Cc1ccc(-c2ccccc2)cc1)C(=O)O; NMeF = CN[C@@H](Cc1ccccc1)C(=O)O

One test addresses T1, E. coli MsbA (EcMsbA) (Escherichia coli, UniProt P60752).
T1 construct: FLAG (N); made in house; host or cells: E. coli (strain for the WT protein not restated)
The test is described as follows: MsbA ATPase assay (Transcreener ADP2 FP). The format is biochemical. Here is the method: (§1) The ATPase activity of MsbA was measured using a Transcreener ADP2 FP Assay (BellBrook Labs). […] The final condition for the reaction was MsbA enzyme, 50 μM ATP in 50 mM Tris pH 7.5, 10 mM MgCl2, 1% glycerol, 0.1% bovine gamma globulin, 1 mM dithiothreitol (DTT), 0.007% Brij-35 and 0.5% dimethylsulfoxide (DMSO). The following concentrations were used for each MsbA variant: 5 nM of EcMsbA, EnMsbA, KpMsbA and 80 nM PaMsbA reconstituted in amphipol, 15 nM EcMsbA and EcMsbA-chim5 in LMNG detergent, 22 nM EcMsbA and 27 nM EcMsbA-12G7 complex in aDDM detergent. The enzyme reaction was incubated for 1 hour at room temperature, then quenched by adding the Transcreener Detection Buffer. The IC50 was determined by fitting the inhibition dose-response curve with a nonlinear four-parameter inhibition model (GraphPad Prism).

Test [1] concerns the target T2, Pseudomonas aeruginosa MsbA (PaMsbA) (Pseudomonas aeruginosa, UniProt Q9HUG8).
T2 construct: FLAG; made in house; host or cells: not restated ('similarly expressed')
T2 sequence (Q9HUG8 1-603): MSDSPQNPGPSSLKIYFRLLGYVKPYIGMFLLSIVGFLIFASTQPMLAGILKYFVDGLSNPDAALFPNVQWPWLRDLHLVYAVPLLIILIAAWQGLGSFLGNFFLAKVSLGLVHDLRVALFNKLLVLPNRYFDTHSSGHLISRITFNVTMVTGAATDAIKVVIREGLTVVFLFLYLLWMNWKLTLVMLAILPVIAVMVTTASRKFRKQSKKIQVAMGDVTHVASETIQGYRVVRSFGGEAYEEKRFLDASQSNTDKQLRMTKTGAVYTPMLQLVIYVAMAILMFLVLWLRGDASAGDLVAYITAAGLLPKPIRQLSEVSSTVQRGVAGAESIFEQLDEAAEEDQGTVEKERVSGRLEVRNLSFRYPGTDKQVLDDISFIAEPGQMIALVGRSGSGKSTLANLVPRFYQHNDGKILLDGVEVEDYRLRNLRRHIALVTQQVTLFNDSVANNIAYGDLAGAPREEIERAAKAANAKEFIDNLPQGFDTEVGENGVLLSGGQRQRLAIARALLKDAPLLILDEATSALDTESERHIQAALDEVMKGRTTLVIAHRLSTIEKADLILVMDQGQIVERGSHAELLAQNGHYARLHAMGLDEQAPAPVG
The test is described as follows: MsbA ATPase assay, amphipol-reconstituted homologue. The format is biochemical. Here is the method:
as §1

The test system of test [2] is WT E. coli cells with an intact outer membrane (CFT073, UPEC WT). The test can be described thus: Cellular IC50 determination (BacTiter-Glo, 6 hours). The test is classed as cell-based, Escherichia coli. The protocol: The cellular IC50's of various bacterial strains (Table 2) were determined.
200 nL aliquots of eight 2-fold dilutions of each compound were dispensed in duplicate into 384-well plates using an Echo Liquid Handler (Labcyte). Strains were grown in cation-adjusted Mueller Hinton Broth with 0.002% Tween overnight for 16 hours, washed with PBS, resuspended at OD600=1 in cation-adjusted Mueller Hinton Broth with 0.002% Tween and 10% glycerol, and frozen in […] aliquots. For each experiment, aliquots were thawed on ice and diluted 1:1000 into cation-adjusted Mueller Hinton Broth with 0.002% Tween. 10 μL cells/well were added to 384-well plates containing compound. Plates were incubated for 6 hours at 37° C., then 10 μL BacTiter-Glo reagent (Promega) was added to each well and luminescence was measured. IC50's were calculated using Genedata Screener software.

Test [3] has as its system imp E. coli (lptD(imp4213)), E. coli MsbA. The test is described as follows: Broth MIC assay. The test is classed as cell-based, Escherichia coli. Conditions: Table 5 prints no unit; μM. Here is the method:
Broth MICs were determined in cation-adjusted Mueller-Hinton broth with 0.002% Tween-80, as previously described (Ho et al., 2018).

The target of test [4] is T3, EcMsbA-chim5 (MsbA-chimera5) (Escherichia coli, UniProt P60752, D53T/D54Y/D60K/DEL268-292/DEL57-57/F265A/G55I/I169L/INS266IAYAGNRVIHEDMRSGALIAFIAAL/INS66P/K49D/K58D/L171A/L263V/L51V/L52I/M159V/M67L/P68V/S164D/S62H/T59E/V63D/Y163E).
T3 construct: FLAG (N); made in house; host or cells: E. coli Rosetta 2 (DE3), pET-52b vector
The test can be described thus: biochemical. The format is biochemical. Here is the method:
as §1

Test [5] addresses T4, EcMsbA-chim5 (MsbA-chimera5) (Escherichia coli, UniProt P60752, D53T/D54Y/D60K/DEL268-292/DEL57-57/F265A/G55I/I169L/INS266[…]/INS66P/K49D/K58D/L171A/L263V/L51V/L52I/M159V/M67L/P68V/S164D/S62H/T59E/V63D/Y163E).
T4 construct: FLAG (N); made in house; host or cells: E. coli Rosetta 2 (DE3), pET-52b vector
The test is described as follows: biochemical. The format is biochemical. To be noted: ATPase; FIGS. 11D-E. The protocol: as §1

Test [6] addresses Enterobacter cloacae MsbA (Enterobacter cloacae). The test can be described thus: cell-based or functional assay.
Test [7] addresses T5, E. coli MsbA-chimera5 (chimera of Escherichia coli MsbA and Magnetospira strain-QH-2 MsbA), P60752.
T5 chain: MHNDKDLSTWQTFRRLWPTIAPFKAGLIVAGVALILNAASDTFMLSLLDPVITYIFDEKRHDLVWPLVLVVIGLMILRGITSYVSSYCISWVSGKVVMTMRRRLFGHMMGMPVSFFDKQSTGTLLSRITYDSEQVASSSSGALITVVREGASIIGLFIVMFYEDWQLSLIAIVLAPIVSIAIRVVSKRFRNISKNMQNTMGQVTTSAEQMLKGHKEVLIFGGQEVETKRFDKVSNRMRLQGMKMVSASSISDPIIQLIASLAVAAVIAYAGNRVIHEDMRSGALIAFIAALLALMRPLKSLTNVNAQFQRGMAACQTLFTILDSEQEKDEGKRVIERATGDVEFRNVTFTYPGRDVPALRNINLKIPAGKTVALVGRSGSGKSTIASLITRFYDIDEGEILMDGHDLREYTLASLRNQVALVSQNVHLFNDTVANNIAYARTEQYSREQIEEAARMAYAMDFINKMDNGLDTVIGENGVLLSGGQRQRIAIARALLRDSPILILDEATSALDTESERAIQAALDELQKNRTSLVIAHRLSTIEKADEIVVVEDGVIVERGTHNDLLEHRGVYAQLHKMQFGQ
The test can be described thus: cell-based or functional assay.

For test [8], the target named is T6, Pseudomonas aeruginosa MsbA (Pseudomonas aeruginosa), Q9HUG8.
T6 chain: T2 sequence (Q9HUG8 1-603)
The test can be described thus: cell-based or functional assay.

The target of test [9] is Klebsiella pneumoniae MsbA (Klebsiella pneumoniae). The test is described as follows: cell-based or functional assay.
In test [10] the target is T7, Escherichia coli MsbA (wild-type) (Escherichia coli), P60752.
T7 chain: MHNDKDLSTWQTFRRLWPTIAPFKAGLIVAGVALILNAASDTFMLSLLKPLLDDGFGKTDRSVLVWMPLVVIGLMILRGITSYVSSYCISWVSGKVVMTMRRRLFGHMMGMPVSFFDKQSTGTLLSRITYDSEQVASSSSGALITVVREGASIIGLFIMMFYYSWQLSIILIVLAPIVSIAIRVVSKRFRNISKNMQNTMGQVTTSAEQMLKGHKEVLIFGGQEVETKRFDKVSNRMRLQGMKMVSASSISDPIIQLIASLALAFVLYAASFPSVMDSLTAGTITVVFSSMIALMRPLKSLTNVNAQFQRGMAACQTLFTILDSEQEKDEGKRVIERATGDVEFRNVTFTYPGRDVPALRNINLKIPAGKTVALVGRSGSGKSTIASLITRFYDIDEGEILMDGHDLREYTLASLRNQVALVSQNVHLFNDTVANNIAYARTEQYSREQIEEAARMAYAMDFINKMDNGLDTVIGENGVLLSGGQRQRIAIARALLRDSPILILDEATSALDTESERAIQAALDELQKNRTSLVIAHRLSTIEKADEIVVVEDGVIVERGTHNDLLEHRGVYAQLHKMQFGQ
The test is described as follows: cell-based or functional assay.

For `CC(C)[C@@H]1NC(=O)[C@H](CCCNC(=N)N)NC(=O)[C@H](Cc2ccccc2)N(C)C(=O)[C@H](Cc2ccc(-c3ccccc3)cc2)NC(=O)[C@H](Cc2ccc(O)cc2)NC(=O)[C@H](C(C)C)NC(=O)[C@H](Cc2ccccc2)NC(=O)CSC[C@@H](C(N)=O)NC1=O` [Compound G1365, ClAc-FVYBphMeFRVCNH2] ({CH2CO}-FVY[Bip][NMeF]RVC-NH2; thioether N-8), the IC50 against E. coli MsbA (EcMsbA) (ATPase inhibitory activity on WT EcMsbA, IC50, purified WT EcMsbA, FIG. 3D) was 1.3 µM; at E. coli MsbA (EcMsbA) (biochemical IC50, FIGS. 3G-L, 8-10 mer macrocycle series experiment), 0.3 µM; in [1] it was 7.6 µM; in test [2] (over the course of 6 hours, read-out: IC50, inhibition of growth of WT E. coli cells with an intact outer membrane), about 20 µM; in test [4], over 5 µM. Besides, the EC50 in [2] (dose response on imp MsbAWT, imp MsbA High and UPEC WT, b248: EC50 for wild-type E. coli cells, read-out: EC50, FIGS. 3G-L) was 20 µM. In addition, the “imp Strain MICs: imp, E.coli MsbA” value in test [3] worked out at 12.5 µM.
`CC1CCN(CC(=O)Nc2ccc(C#N)nc2C(=O)c2ncccc2F)CC1` [Compound G758, N-(6-cyano-2-(3-fluoropicolinoyl)pyridin-3-yl)-2-(4-methylpiperidin-1-yl)acetamide, reference compound]: the “sensitivity of MsbA-chim5 to previously identified small-molecule inhibitors” value in test [5] is given as “displayed sensitivity”.
Turning to FWWLWDDVSWWFVC (modifications not checked) [G1118], in test [6], the IC50, ATPase activity amounted to 0.24 µM. Moreover, in test [7], the IC50, ATPase activity of purified MsbA-chim5 is over 5 µM and the fold lower potency than on EcMsbA (ATPase) was over 30 fold. The same molecule registered an IC50, ATPase activity in [8] of 3.1 µM. This molecule also displayed an IC50, ATPase activity in test [9] of 0.12 µM. Also, in test [10], the IC50, ATPase activity of purified EcMsbA was 0.11 µM; the IC50 for inhibition of ATPase activity of MsbA was determined as 0.005 µM; the minimum inhibitory concentration (MIC), E. coli cells with the lptD(imp4213) allele was 210 µg/mL.
